From patent US20150037832A1, “METHODS OF FACILITATING THE BIOCONVERSION OF CRUDE BIODIESEL-DERIVED GLYCEROL BY MICROORGANISMS” (priority 2011, published 2015)
Where “and” joins values, the source holds several entries; their conditions need not be identical. Equal values may be shown once. Read-outs that look alike come from different tables or passages of the source.

How the values were obtained:
[1] = system: Clostridium pasteurianum ATCC 6013; assay: Growth (optical density, μmax) and pH profiles of batch cultures; format: cell-based; details: for maximum specific growth rate, μmax: exponential log phase, 20 g/L glycerol and/or 10 g/L sugar; for effect on maximum optical density: 2 g/L sodium salt in 25 g/L pure glycerol
Experimental: (§1) Pre-cultures for glycerol utilization experiments were grown in RCM. The growth was monitored using optical density (λ=600 nm) and the cultures were used as inoculum once they reached the mid-exponential phase of growth. 100 mL of Biebl medium with appropriate carbon sources was inoculated with 10% inoculum and the contents were split equally into three in a 75 mL culture flask. All experiments were carried out in batch cultures and in triplicates. The cultures were monitored for growth, substrate utilization and product formation as mentioned earlier.
The co-fermentation of sugars was studied using hexose (dextrose) and pentose (D-xylose and L-arabinose) with 20 g/L of pure glycerol at a concentration of 10 g/L of the sugars, maintaining a 2:1 ratio of glycerol and sugars. Cells grown on glycerol or sugar alone were used as controls. […] Acetate and butyrate were studied at concentrations of 2 g/L with an initial glycerol concentration of 25 g/L of pure glycerol. Biotin was supplemented in the media at 0.8 mg/L with an initial concentration of 25 g/L of pure glycerol.

[2] = system: Clostridium pasteurianum ATCC 6013; assay: Product yields and substrate utilization of fermentation (HPLC); details: for effect of addition on butanol / product formation: added to glycerol fermentation; for 1,3-PDO yield / conversion: sole carbon source
Experimental: Freeze dried pure cultures of C. pasteurianum were revived using nutrient rich reinforced clostridal growth media (RCM) and glycerol stock cultures were prepared for future use. […] Pre-culture for glycerol utilization experiments were grown in RCM. The growth was monitored using optical density and the cultures were used as inoculum once they reached mid-exponential phase of growth. The growth experiments were conducted in 75 mL culture flasks containing 40 mL of the media and 5 mL of inoculum. Defined media was used for glycerol utilization. Unless otherwise specified purified glycerol or biodiesel derived crude glycerol were used as the sole carbon source. All experiments were conducted in an anaerobic chamber (95% N2 and 5% H2) at a temperature of 37° C. to ensure oxygen-free conditions.
as §1
The co-fermentation of sugars was studied using hexose (dextrose) and pentose (D-xylose and L-arabinose) with 20 g/L of pure glycerol at a concentration of 10 g/L of the sugars, maintaining a 2:1 ratio of glycerol and sugars. Cells grown on glycerol or sugar alone were used as controls.

[3] = system: Clostridium pasteurianum ATCC 6013; assay: Effect of impurities on glycerol fermentation; format: cell-based; details: for growth and product yield: salt at 2.5, 5, 7.5 and 10% (w/w) of initial glycerol; for growth and product yield / substrate utilization: 25 g/L pure glycerol; for substrate utilization: fatty acid sodium salt at 5%, 10% and 15% (w/w) of initial substrate
Experimental: Defined media was used for glycerol utilization.
To study the effect of impurities in crude glycerol, various concentrations of each impurity were added to the media containing 25 g/L pure glycerol. Methanol was added at 2.5 g/L and 5 g/L. Potassium chloride and potassium sulfate were added at 2.5, 5, 7.5 and 10% (w/w) of the initial glycerol concentration. The fatty acids were added in the form of sodium salts of steric acid, oleic acid and linoleic acid at 5, 10 and 15% (w/w) (of initial substrate conc.). The media containing 25 g/L of pure glycerol was used as the control. The effects of fatty acids were also studied by partially purifying the crude glycerol by precipitating the fatty acids using concentrated hydrochloric acid. The crude glycerol was diluted in deionized water at a ratio of 1:3 and hydrochloric acid was added to lower pH to between 2 and 3. At this pH the fatty acids precipitated and were removed by centrifugation at 5000 rpm for 15 minutes. The precipitated fatty acids were later analyzed using NMR by dissolving them in d-DMSO.

C. acetobutylicum = details: butyrate addition at 2 g/L, reported; cited from earlier work
[4] = system: Clostridium pasteurianum ATCC 6013
Experimental: The cell membrane was extracted using dichloromethane/methanol mixtures. The membrane extracted in dichloromethane was separated by evaporating the solvents under a gentle nitrogen stream. This dry film of the membrane was used for further analysis.
The dry film of the membrane was dissolved in deuterated chloroform for NMR analysis. Synthetic lipids such as Diaplmitoylphosphotidylcholine (DPPC) and Dioleylphosphotidylcholine (DOPC) were used as standards for NMR analysis. The dry films of the membrane lipids were labeled with DPH (500:1) and made into liposomes for analyzing the stability of the membrane by studying the fluorescence anisotropy using a Perkin-Elmer LS50B.

[5] = L-arabinose added to glycerol, vs glycerol alone
[6] = endogenously produced butanol, defined media, varied glycerol concentration
[7] = exogenous butanol 2 g/L to 20 g/L, defined media with 50 g/L glucose and RCM

Molecule: O=C[C@H](O)[C@@H](O)[C@H](O)CO [D-xylose]
- maximum specific growth rate, μmax [1]: 0.794 ± 0.390 day⁻¹
- acetate, 1,3-PDO and ethanol as share of the overall products ([2]; D-xylose as sole carbon source): 88%
- product formation ([2]; D-xylose as sole carbon source): 0.78 g/g
- effect of addition on butanol / product formation [2]: did not result in an increase in the formation of any of the products
- utilization of D-xylose ([2]; addition of D-xylose to glycerol fermentation, 2:1): 25±16%
- D-xylose left unconsumed in the media ([2]; co-fermentation of glycerol with xylose): more than 90%

Molecule: OCC(O)CO [Glycerol, glycerol]
- maximum specific growth rate, μmax [1]: 1.562 ± 0.118 day⁻¹
- butanol yield ([2]; control experiment with glycerol): 22 % (g/g)
- 1,3-PDO yield / conversion ([2]; control): 20 % (g/g)

Molecule: O=C[C@H](O)[C@@H](O)[C@@H](O)CO [L-arabinose]
- maximum specific growth rate, μmax [1]: 0.933 ± 0.054 day⁻¹
- ethanol yield ([2]; L-arabinose added to glycerol): 0.10 g/g
- increase of 1,3-PDO yield [2, 5]: 65%
- increase of ethanol yield [2, 5]: 5 fold
- 1,3-PDO and ethanol as share of overall products ([2]; L-arabinose as carbon source): 85%
- effect of addition on butanol / product formation [2]: does not affect the yield of butanol
- ratio of butanol/1,3-PDO ([2]; addition of L-arabinose to glycerol): 0.64
- 1,3-PDO maximum yield ([2]; control, L-arabinose sole carbon source): 36.5 % (g/g)
- 1,3-PDO yield / conversion ([2]; control): 28 % (g/g)
- Ethanol and 1,3-PDO as share of the products yielded ([2]; cultures on arabinose): ~86 % (mol/mol)
- 1,3-PDO yield ([2]; sugar 10 g/L added as co-substrate to 20 g/L glycerol, with respect to glycerol): 0.33 g/g

Molecule: [Cl-].[K+] [Potassium chloride]
- growth and product yield [3]: no detrimental effect on growth and product yield

Molecule: CC(=O)[O-].[Na+] [acetate, sodium acetate]
- effect on maximum optical density [1]: small increase in the maximum optical density
- decrease in 1,3-PDO production [2]: 33%
- increase in butanol formation [2]: ~25% and 23%

Molecule: O=C(O)CCCC[C@@H]1SC[C@@H]2NC(=O)N[C@@H]21 [biotin]
- increase in butanol formation ([2]; supplement (acetate 2 g/L, biotin 0.8 mg/L) in 25 g/L pure glycerol, vs control): 18% and ~25%

Molecule: CCCC(=O)[O-].[Na+] [butyrate, sodium butyrate]
- effect on maximum optical density [1]: slightly lower maximum optical density
- lowering of the maximum optical density ([1]; butyrate 2 g/L in 25 g/L pure glycerol): 20%
- increase of butanol production (C. acetobutylicum): 1.6 folds
- effect of addition on butanol / product formation [2]: did not increase butanol production

Molecule: CO [methanol]
- growth or product formation during the fermentation of glycerol ([3]; methanol at 2.5 g/l and 5 g/L in media with 25 g/L pure glycerol): no reduction in growth or product formation

Molecule: O=S(=O)([O-])[O-].[K+].[K+] [potassium sulfate]
- growth and product yield [3]: no detrimental effect on growth and product yield

Molecule: CCCCC/C=C\C/C=C\CCCCCCCC(=O)[O-].[Na+] [sodium linoleate]
- substrate utilization [3]: completely inhibited

Molecule: CCCCCCCC/C=C\CCCCCCCC(=O)[O-].[Na+] [sodium oleate]
- substrate utilization [3]: not affected

Molecule: CCCCCCCCCCCCCCCCCC(=O)[O-].[Na+] [sodium stearate]
- substrate utilization [3]: not affected

Molecule: butanol
- anisotropy of membrane [4, 6]: corresponding increase in anisotropy
- degree of unsaturation of membrane fatty acids [4, 6]: a decrease in the degree of unsaturation
- anisotropy of membrane [4, 7]: found to decrease
- degree of unsaturation of membrane fatty acids [4, 7]: observed to increase
